Reference: US8574633B2 (priority 2004, dated 2013)
Where “and” joins values, the source holds several entries; their conditions need not be identical. Equal entries are not always repeated.

Tested on: ICR mice
Method: 2.experimental animals: ICR mice, SPF, male and female, body weight 18-20 g, all bought from Shanghai SIPPR/BK Experimental Animal Co. Laboratory animal license No. SCXK (Hu)2003-0002
3. experimental conditions: SPF experimental environment. Grouped the experimental mice 5 per cage and bred. The breeding temperature was 22±2° C., the humidity was 60-70% and Laboratory animal license number was SCXK (Hu)2002-0035. The mice were bred with the solid high pressure forage. Fasted 12 hours before the test but no water-deprivation.
After administration, the mice were liberated to diet. Observed the mice once immediately, every morning and every afternoon for 7 continuous days. The mice were observed once a day from the 8th day. Record the mortality and toxic reaction of the experimental animals.

C/C=C1\[C@H]2C=C(C)C[C@]1(N)c1ccc(=O)[nH]c1C2 [Control medicine, Huperzine A]
content of HupA at the LD50 of the composition (HupA part of the LD50 dose): 6.03 mg/kg | LD50 (ICR mice, intragastric, simplified probit method, confidence limit 95%): 6.03 ± 1.46 mg/kg and 6.03 mg/kg
